Laboratory results published in patent US20120100361A1, “ANTISEPTIC COMPOSITION FOR ENGINEERING WOOD PRODUCTION, AND ENGINEERING WOOD” (SDS BIOTECH K.K., priority 2009, published 2012).

System: not listed separately
Experiment: Test for miscibility with a phenol resin glue
Type: physicochemical
Design: key to Phenol resin status after 60 minutes: ∘: No change; x: Obvious increase in the viscosity was seen and it seems impossible to apply the composition onto the veneer sheet
Conditions: 10% (w/w) solution added to phenol resin glue Deernol D-117 kneaded product; viscosity change visually observed for 60 minutes
Protocol: The following compounds, which are known to have wood preservative activity, are dissolved in methyl ethylene triglycol to reach a concentration of 10% (w/w) to thereby obtain a solution of each of the compounds.
1000 g of phenol resin-based glue Deernol D-117 (manufactured by Oshika Corporation), 70 g of wheat flour and 100 g of calcium carbonate were mixed and well kneaded. Each of the solutions of Example 1 and Comparative Example 1 to 25 was added to 17 g of the kneaded product and mixed well together. The viscosity change of the glue was visually observed for 60 minutes. […] Although a number of documents listed as the prior art documents and the like teach that quaternary ammonium compounds can be applied to the glue line treatment, it is clear that those compounds have a problem for practical use (Comparative Examples 3 and 4). On the other hand, it was confirmed that the other compounds including that of Example has no problem from the viewpoint of compatibility.

Question: Which “Phenol resin status after 60 minutes” value does the source give for `CCCC1COC(Cn2cncn2)(c2ccc(Cl)cc2Cl)O1` (centres unmarked) [Comparative Example 17, propiconazole] here?
Answer: ∘

Question: With `C[Si](C)(C)CC(O)(Cn1cncn1)c1ccc(F)cc1` (centres unmarked) [Comparative Example 8, simeconazole] as the compound, how does the “Phenol resin status after 60 minutes” value read?
Answer: ∘

Question: Which “Phenol resin status after 60 minutes” value does the source give for `FC(F)C(F)(F)OCC(Cn1cncn1)c1ccc(Cl)cc1Cl` (centres unmarked) [Comparative Example 18, tetraconazole] here?
Answer: ∘

Question: With `CC(C)C1CCC(Cc2ccc(Cl)cc2)C1(O)Cn1cncn1` (centres unmarked) [Comparative Example 13, ipconazole] as the compound, how does the “Phenol resin status after 60 minutes” value read?
Answer: ∘

Question: For “benzalkonium chloride [Comparative Example 3]”, which “Phenol resin status after 60 minutes” value is on record?
Answer: x

Question: Which “Phenol resin status after 60 minutes” value does the source give for `CCCCC(O)(Cn1cncn1)c1ccc(Cl)cc1Cl` (centres unmarked) [Comparative Example 1, hexaconazole] here?
Answer: ∘

Question: Which “Phenol resin status after 60 minutes” value does the source give for `C[Si](C)(C)CC(O)(Cn1cncn1)c1ccc(F)cc1F` (centres unmarked) [Comparative Example 2, 2-(2,4-difluorophenyl)-1-(1H-1,2,4-triazole-1-yl)-3-(trimethylsilyl)propane-2-ol] here?
Answer: ∘

Question: For `Clc1ccc(CSC(Cn2cncn2)=Nc2ccc(Cl)cc2Cl)cc1` [Comparative Example 12, imibenconazole], which “Phenol resin status after 60 minutes” value is on record?
Answer: ∘

Question: For `CC1(C)CCC(Cc2ccc(Cl)cc2)C1(O)Cn1cncn1` (centres unmarked) [Comparative Example 14, metconazole], which “Phenol resin status after 60 minutes” value is on record?
Answer: ∘

Question: With `C[Si](Cn1cncn1)(c1ccc(F)cc1)c1ccc(F)cc1` [Comparative Example 10, flusilazole] as the compound, how does the “Phenol resin status after 60 minutes” value read?
Answer: ∘

Question: For `COC(=O)N(OC)c1ccccc1COc1ccn(-c2ccc(Cl)cc2)n1` [Comparative Example 22, pyraclostrobin], which “Phenol resin status after 60 minutes” value is on record?
Answer: ∘

Question: For `Clc1ccc(C2(Cn3cncn3)OCCO2)c(Cl)c1` [Comparative Example 7, azaconazole], which “Phenol resin status after 60 minutes” value is on record?
Answer: ∘

Question: With `CC(C)(C)C(=O)C(Oc1ccc(Cl)cc1)n1cncn1` (centres unmarked) [Comparative Example 19, triadimefon] as the compound, how does the “Phenol resin status after 60 minutes” value read?
Answer: ∘

Question: Which “Phenol resin status after 60 minutes” value does the source give for `CC(C)(C)C(O)(CCc1ccc(Cl)cc1)Cn1cncn1` (centres unmarked) [Comparative Example 6, tebuconazole] here?
Answer: ∘

Question: For `CC1(C)CCC(=Cc2ccc(Cl)cc2)C1(O)Cn1cncn1` (centres unmarked) [Comparative Example 20, triticonazole], which “Phenol resin status after 60 minutes” value is on record?
Answer: ∘

Question: Which “Phenol resin status after 60 minutes” value does the source give for `N#CC(CCc1ccc(Cl)cc1)(Cn1cncn1)c1ccccc1` (centres unmarked) [Comparative Example 9, fenbuconazole] here?
Answer: ∘

Question: For `CCCCCCCCCC[N+](C)(C)CCCCCCCCCC.[Cl-]` [Comparative Example 4, didecyldimethylammonium chloride], which “Phenol resin status after 60 minutes” value is on record?
Answer: x

Question: For `CCCCC(C#N)(Cn1cncn1)c1ccc(Cl)cc1` (centres unmarked) [Comparative Example 15, myclobutanil], which “Phenol resin status after 60 minutes” value is on record?
Answer: ∘

Question: For `CCCC(Cn1cncn1)c1ccc(Cl)cc1Cl` (centres unmarked) [Comparative Example 16, penconazole], which “Phenol resin status after 60 minutes” value is on record?
Answer: ∘

Question: With `N#Cc1c(Cl)c(Cl)c(Cl)c(C#N)c1Cl` [Comparative Example 25, chlorothalonil] as the compound, how does the “Phenol resin status after 60 minutes” value read?
Answer: ∘

Question: Which “Phenol resin status after 60 minutes” value does the source give for `CC(C1CC1)C(O)(Cn1cncn1)c1ccc(Cl)cc1` (centres unmarked) [Comparative Example 5, cyproconazole] here?
Answer: ∘

Question: Which “Phenol resin status after 60 minutes” value does the source give for `OC(Cn1cncn1)(c1ccc(F)cc1)c1ccccc1F` (centres unmarked) [Comparative Example 11, flutriafol] here?
Answer: ∘

Same assay, conditions: summary of Table 1

Question: With “benzalkonium chloride [Comparative Example 3]” as the compound, how does the “compatibility with phenol resin glue (in words)” value read?
Answer: harden the glue

Question: With `CCCCCCCCCC[N+](C)(C)CCCCCCCCCC.[Cl-]` [Comparative Example 4, didecyldimethylammonium chloride] as the compound, how does the “compatibility with phenol resin glue (in words)” value read?
Answer: harden the glue

System: Trametes versicolor
Experiment: Test for antiseptic effects of preservative plywood (JIS K1571:2004)
Type: cell-based
Conditions: glue line method; summary of Tables 2 and 3
Protocol: 1000 g of urea melamine resin (PWP-60, manufactured by Oshika Corporation) was added to 180 g of wheat flour and fully kneaded to thereby obtain a kneaded product. 8 g of ammonium chloride was added as a hardening agent to the kneaded product, and a solution of each of the compounds of Example 1 and Comparative Example 1, 2 and 5 to 25 was further added thereto so that the final concentrations of the compound in the wood become 150, 100, 50 and 25 g/m^3 and kneaded. 18 g of the above kneaded product was applied onto each of the bonding plane of the three red lauan veneer sheets having an area of 30 x 30 cm and thickness of 0.85 mm/2.4 mm/0.85 mm. After bonding the three sheets to each other, the sheets were subjected to cold pressing at room temperature for 20 minutes and the thermal pressure of 120° C. (10 kgf/cm^2) was applied to the sheets for two minutes to obtain the target plywood. Each of the prepared plywood was processed into the size of 20×20×4.1 mm to serve as a test sample.
The samples of the plywood and LVL prepared in Preparation Examples 2 and 3 were evaluated by the test for antiseptic effects for the drug pressure treatment according to JIS K1571:2004. The weather resistance operation and the test method for the antiseptic effect were performed according to the above test method.

Question: For `CCCCC(O)(Cn1cncn1)c1ccc(Cl)cc1Cl` (centres unmarked) [Comparative Example 1, hexaconazole], which “amount showing the antiseptic effect on Trametes versicolor” value is on record?
Answer: ≥ 50 g/m^3

Question: Which “amount showing the antiseptic effect on Trametes versicolor” value does the source give for `C[Si](C)(C)CC(O)(Cn1cncn1)c1ccc(F)cc1F` (centres unmarked) [Comparative Example 2, 2-(2,4-difluorophenyl)-1-(1H-1,2,4-triazole-1-yl)-3-(trimethylsilyl)propane-2-ol] here?
Answer: ≥ 100 g/m^3
